“Also recorded” adds a separate entry of the source.
Experiments:
[1] = Plasma concentration of metoclopramide 30 minutes post-dose, Visit 3 (single dose) and Visit 7 (steady state); type: in vivo, human; details: 10 mg and 14 mg IN, Visit 3 and Visit 7, 30 minutes post-dose
Experimental: Pharmacokinetic (PK) blood samples for the determination of metoclopramide concentration were obtained from all subjects on Visit 3, Day 0 (pre-dose and 30 minutes after dosing [single dose]) and at the Final Visit (Day 28) 30 minutes post-dose (steady state).
Pharmacokinetics: The pharmacokinetics (PK) of the study drug was evaluated in all subjects. FIG. 1 summarizes PK data (blood plasma concentration of metoclopramide in ng/mL) for both Treatment Arms (10 mg and 14 mg, intranasal) on visit 3 and visit 7. Individual data are represented by circles and the arithmetic mean and geometric mean of each group is represented by lines. (In each case, the upper line represents the arithmetic mean and the lower line represents the geometric mean.) In FIG. 2, the PK data are analyzed by gender.

[2] = Safety in the clinical study of metoclopramide nasal spray; type: in vivo, human; details: 10 mg or 14 mg IN four times daily, four weeks
Experimental: The objectives of this study were to evaluate the safety and the effectiveness of two doses of metoclopramide nasal spray solution, 10 mg and 14 mg, compared to placebo in reducing the symptoms of diabetic gastroparesis and to assess the plasma concentrations of two doses of metoclopramide nasal spray in subjects with diabetic gastroparesis following a single dose and at steady state. The aforementioned dosages for the treatment and control of gastroparesis were administered before meals and/or before bed time. Subjects who met the entry criteria after the Washout Period (Day −7 to Day −1) were randomized using an IVRS, to metoclopramide nasal spray 10 mg, 14 mg, or placebo, in roughly equal numbers (approximately 1:1:1) using a predetermined randomization schedule employing permuted blocks. Randomization was preformed centrally.
The study consisted of up to a 23-day Screening Period, a 7-day Washout Period (Day −7 to Day −1) followed by four weeks of study drug treatment. The total duration of each subject's participation was approximately 8 weeks, 287 subjects were enrolled in the study and were randomized to the following groups: Placebo (n=95), 10 mg intranasal (n=96) and 14 mg intranasal (n=96). Of those subjects enrolled, a total of 259 completed the study (˜90%).

## CCN(CC)CCNC(=O)c1cc(Cl)c(N)cc1OC [metoclopramide, -amino-5-chloro-N-(2-(diethylamino)ethyl)-2-methoxybenzamide]
[1]
  Difference in PK data (blood plasma concentration) between females and males: no statistical difference; also recorded: not statistically significant
[2]
  Dose-limiting toxicities: no dose-limiting toxicities
  Reports of tardive dyskinesia: no reports of tardive dyskinesia
